Reference: publication PMC11473416, “Coumarin-chalcone derivatives as dual NLRP1 and NLRP3 inflammasome inhibitors targeting oxidative stress and inflammation in neurotoxin-induced HMC3 and BE(2)-M17 cell models of Parkinson's disease” (Frontiers in Aging Neuroscience, 2024)

System: HMC3 cells
Test: cytotoxicity MTT assay in HMC3 cells
Format: cell-based, human
Settings: MPP^+ at 4 mM
Method: Human HMC3 microglial (CRL-3304) and neuroblastoma BE(2)-M17 (CRL-2267) cells were obtained from American Type Culture Collection. BE(2)-M17 develops a better dopaminergic phenotype than SH-SY5Y when treated with retinoic acid to direct neuronal differentiation (Carvajal-Oliveros et al., [2022]). Cells were routinely maintained in Dulbecco's Modified Eagle Medium-Nutrient Mixture F12 (DMEM-F12) supplemented with 10% fetal bovine serum (FBS; Thermo Fisher Scientific, Waltham, MA, USA) in a 37°C incubator, with 95% relative humidity and 5% CO2 (NuAire, Plymouth, MN, USA).
To evaluate cytotoxicity of LM compounds and MPP^+, HMC3 (1 × 10^4) or BE(2)-M17 (2 × 10^4) cells were plated on 96-well dishes, grown for 20 h, and treated with LM compounds (1–100 μM) or MPP^+ [HMC3: 0–8 mM; BE(2)-M17: 0–5 mM]. Next day, 20 μl of tetrazolium dye 3-(4,5-dimethylthiazol-2-yl)-2,5-diphenyltetrazolium bromide (MTT, 5 mg/ml; Sigma-Aldrich) was added to the cells at 37°C for 3 h. The resulted insoluble purple formazan products were dissolved by lysis buffer (composition: 10% Triton X-100, 0.1 N HCl, 18% isopropanol). The absorbance of the dissolved product at optical density (OD) 570 nm was read by using a FLx800 fluorescence microplate spectrophotometer (Bio-Tek, Winooski, VT, USA). The half maximal inhibitory concentration (IC50) of LM compounds was determined through the construction of a dose-response curve. MPP^+ at 4 mM (HMC3 cell viability: 65%−69%) or 0.62 mM [BE(2)-M17 cell viability: 79%−84%] was selected to induce inflammation for further experiments.

C[n+]1ccc(-c2ccccc2)cc1 [MPP^+, 1-methyl-4-phenyl pyridinium, reference compound]
cell viability: 65%−69%
